Measured values reported in patent publication USRE49735E1 (BRISTOL-MYERS SQUIBB COMPANY, priority 2010, dated 2023).
“And” between values parts separate entries of the source, which are not always exact repeats. Identical values can stand only once.

Molecular target: human mGluR5A (Homo sapiens, UniProt P41594)
Experiment: mGluR5 FLIPR Assay
Assay type: cell-based
Settings: positive modulator activity; HEK293 (ZF) cells with human mGluR5A and rat GLAST; Ca++ response to ~EC10 glutamate

human mGluR5A, sequence (P41594 21-1180 isoform P41594-2): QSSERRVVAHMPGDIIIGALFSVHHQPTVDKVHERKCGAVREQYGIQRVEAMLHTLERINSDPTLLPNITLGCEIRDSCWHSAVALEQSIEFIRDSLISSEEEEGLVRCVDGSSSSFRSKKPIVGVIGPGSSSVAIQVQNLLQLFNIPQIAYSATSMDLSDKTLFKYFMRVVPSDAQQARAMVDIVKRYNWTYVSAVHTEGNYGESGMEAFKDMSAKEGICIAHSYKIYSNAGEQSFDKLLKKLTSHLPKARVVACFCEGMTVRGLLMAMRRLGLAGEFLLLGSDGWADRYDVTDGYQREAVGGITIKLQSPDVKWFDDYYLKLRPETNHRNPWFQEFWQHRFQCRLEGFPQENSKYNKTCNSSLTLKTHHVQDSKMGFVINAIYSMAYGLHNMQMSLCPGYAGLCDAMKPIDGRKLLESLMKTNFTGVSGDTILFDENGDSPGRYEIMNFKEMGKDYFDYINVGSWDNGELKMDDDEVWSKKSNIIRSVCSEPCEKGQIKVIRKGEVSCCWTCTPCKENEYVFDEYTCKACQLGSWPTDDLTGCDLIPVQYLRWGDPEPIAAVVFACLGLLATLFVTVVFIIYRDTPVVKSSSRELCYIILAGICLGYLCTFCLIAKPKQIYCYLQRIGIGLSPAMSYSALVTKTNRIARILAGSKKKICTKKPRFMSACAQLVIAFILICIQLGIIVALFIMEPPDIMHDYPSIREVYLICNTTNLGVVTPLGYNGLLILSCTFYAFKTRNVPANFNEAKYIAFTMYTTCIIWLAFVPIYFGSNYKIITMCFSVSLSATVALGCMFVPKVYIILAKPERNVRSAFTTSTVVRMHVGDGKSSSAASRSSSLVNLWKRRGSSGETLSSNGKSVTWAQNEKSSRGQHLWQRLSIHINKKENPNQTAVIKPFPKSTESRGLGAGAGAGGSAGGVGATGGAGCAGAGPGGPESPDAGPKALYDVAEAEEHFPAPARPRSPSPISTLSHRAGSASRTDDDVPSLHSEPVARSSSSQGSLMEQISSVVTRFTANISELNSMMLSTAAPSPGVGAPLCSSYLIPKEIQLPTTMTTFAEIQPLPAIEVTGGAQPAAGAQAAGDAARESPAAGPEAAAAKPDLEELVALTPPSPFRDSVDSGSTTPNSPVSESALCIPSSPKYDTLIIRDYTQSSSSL

SMILES	EC50
O=C1N[C@H](c2cncc(C#Cc3ccccc3)c2)[C@@H](c2ccncn2)O1 (single isomer, unassigned) [Example 318]	< 100 nM
COc1cccc([C@H]2OC(=O)N[C@@H]2c2cccc(C#Cc3cnc4cc[nH]c4c3)c2)c1 [Example 197]	> 1000 nM
N#Cc1ccc([C@H]2OC(=O)N[C@@H]2c2cncc(C#Cc3ccccc3)c2)cc1 [Example 365, 4-((4R,5R)-2-Oxo-4-(5-(phenylethynyl)pyridin-3-yl)oxazolidin-5-yl)benzonitrile]	< 100 nM
O=C1N[C@H](c2cccc(C#Cc3ccccc3F)n2)[C@@H](c2ccccc2)O1 (single isomer, unassigned) [Example 14]	> 1000 nM
N#Cc1cccc(C#Cc2cncc([C@H]3NC(=O)O[C@@H]3c3ccc(F)cc3)c2)c1 [Example 215]	< 100 nM
COc1cccc([C@H]2OC(=O)N[C@@H]2c2cccc(C#Cc3cccc(Cl)c3)c2)c1 [Example 262]	100 to 1000 nM
COc1cccc([C@@H]2OC(=O)N[C@@H]2c2cccc(C#Cc3ccccc3)c2)c1 (single isomer, unassigned) [Example 3]	100 to 1000 nM and 283 nM
O=C1N[C@@H](c2cccc(C#Cc3ccccc3)n2)[C@H](c2cc(F)cc(F)c2)O1 (single isomer, unassigned) [Example 316]	> 1000 nM
O=C1NC(c2cccc(C#Cc3ccccc3)c2)C(c2cccc(O)c2)O1 [Example 380, (4R,5R)-5-(3-Hydroxyphenyl)-4-(3-phenylethynyl)phenyl)oxazolidin-2-one]	< 100 nM
O=C1N[C@H](c2cncc(C#Cc3ccccn3)c2)[C@@H](c2cc(F)cc(F)c2)O1 [Example 177]	> 1000 nM
O=C1N[C@H](c2ccnc(C#Cc3cncc(F)c3)c2)[C@@H](c2cccnc2)O1 [Example 253]	> 1000 nM
COc1cccc([C@H]2OC(=O)N[C@@H]2c2cccc(C#Cc3cccnc3C)c2)c1 [Example 87, (4R,5R)-5-(3-Methoxyphenyl)-4-(3-((2-methylpyridin-3-yl)ethynyl)phenyl)oxazolidin-2-one]	> 1000 nM
O=C1N[C@H](c2cccc(C#Cc3ccccc3)n2)[C@@H](c2ccccc2)O1 (single isomer, unassigned) [Example 10]	< 100 nM
Cc1ccc([C@H]2OC(=O)N[C@@H]2c2cccc(C#Cc3ccccc3)c2)cc1C [Example 101, (4R,5R)-5-(3,4-dimethylphenyl)-4-(3-(phenylethynyl)phenyl)oxazolidin-2-one]	< 100 nM
O=C1N[C@H](c2cncc(C#Cc3cnccn3)c2)[C@@H](c2cccc(F)c2)O1 [Example 397, (4R,5R)-5-(3-Fluorophenyl)-4-(5-(pyrazin-2-ylethynyl)pyridin-3-yl)oxazolidin-2-one]	< 100 nM
C[C@]1(c2cncc(C#Cc3ccccc3)c2)NC(=O)O[C@H]1c1ccccc1 [Example 226]	< 100 nM
O=C1N[C@H](c2cncc(C#Cc3ccccc3)c2)[C@@H](c2ccccc2Cl)O1 (single isomer, unassigned) [Example 364]	> 1000 nM
O=C1N[C@H](c2cccc(C#Cc3cncc(F)c3)c2)[C@@H](c2cccnc2)O1 [Example 237]	100 to 1000 nM
COc1cccc([C@H]2OC(=O)N[C@@H]2c2cccc(C#Cc3ccc4ccccc4n3)c2)c1 [Example 66, (4R,5R)-5-(3-Methoxyphenyl)-4-(3-(quinolin-2-ylethynyl)phenyl)oxazolidin-2-one]	100 to 1000 nM

SMILES	EC50
C[C@@]1(c2ccc(F)cc2)OC(=O)N[C@@H]1c1cncc(C#Cc2ccccc2)c1 [Example 205]	< 100 nM and 2.2 nM
COc1ncc(C#Cc2ccccc2)cc1[C@H]1NC(=O)O[C@@H]1c1cccc(F)c1 [Example 300, (4R,5R)-5-(3-Fluorophenyl)-4-(2-methoxy-5-(phenylethynyl)pyridin-3-yl)oxazolidin-2-one]	< 100 nM
COc1cccc([C@@H]2OC(=O)N[C@H]2c2cccc(C#Cc3ccc(F)cc3F)c2)c1 [Example 128, (4S,5S)-4-(3-((2,4-difluorophenyl)ethynyl)phenyl)-5-(3-methoxyphenyl)oxazolidin-2-one]	> 1000 nM
O=C1N[C@H](c2cccc(C#Cc3ccccc3)c2)[C@@H](c2cccnn2)O1 [Example 243]	100 to 1000 nM and 272 nM
COc1cccc([C@H]2OC(=O)N[C@@H]2c2cccc(C#Cc3cccc(C#N)n3)c2)c1 [Example 75, 6-((3-((4R,5R)-5-(3-Methoxyphenyl)-2-oxooxazolidin-4-yl)phenyl)ethynyl)picolinonitrile]	> 30000 nM
O=C1N[C@H](c2cncc(C#Cc3cncc(F)c3)c2)[C@@H](c2cccc(F)c2)O1 [Example 256]	< 100 nM
O=C1N[C@H](c2cncc(C#Cc3ccccc3)c2)[C@@H](c2c(F)cccc2F)O1 [Example 278]	> 1000 nM
O=C1N[C@H](c2cncc(C#Cc3ccccc3)c2)[C@@H](c2ncco2)O1 [Example 339, (4R,5S)-5-(oxazol-2-yl)-4-(5-(phenylethynyl)pyridin-3-yl)oxazolidin-2-one]	> 1000 nM
COc1cccc([C@H]2OC(=O)N[C@@H]2c2cccc(C#Cc3cccc(F)c3)n2)c1 [Example 8, (4R,5R)-4-(6-((3-Fluorophenyl)ethynyl)pyridin-2-yl)-5-(3-methoxyphenyl)oxazolidin-2-one]	> 1000 nM
O=C1N[C@H](c2cccc(C#Cc3ccccc3)c2)[C@@H](c2ccccc2)O1 (single isomer, unassigned) [Example 95]	< 100 nM
O=C1N[C@H](c2cccc(C#Cc3ccccn3)c2)[C@@H](c2ccncc2)O1 [Example 233]	< 100 nM
O=C1N[C@H](c2cccc(C#Cc3cccnc3)c2)[C@@H](c2cnccn2)O1 [Example 249]	> 1000 nM
COc1cccc([C@H]2OC(=O)N[C@@H]2c2cccc(C#Cc3ccccc3C(F)(F)F)c2)c1 [Example 125, (4R,5R)-5-(3-methoxyphenyl)-4-(3-((2-(trifluoromethyl)phenyl)ethynyl)phenyl)oxazolidin-2-one]	> 30000 nM
COc1ccccc1[C@@H]1OC(=O)N[C@H]1c1cncc(C#Cc2ccccc2)c1 (single isomer, unassigned) [Example 333]	> 1000 nM
O=C1N[C@H](c2cccc(C#Cc3ccccc3)n2)[C@@H](c2ccc(F)cc2)O1 (single isomer, unassigned) [Example 135]	< 100 nM and 8.5 nM
O=C1N[C@H](c2cncc(C#Cc3cccc(F)n3)c2)[C@@H](c2ccc(F)cc2)O1 [Example 216]	< 100 nM
COc1cccc([C@H]2OC(=O)N[C@@H]2c2cccc(C#Cc3cccc(N(C)C)c3)c2)c1 [Example 58, (4R,5R)-4-(3-((3-(Dimethylamino)phenyl)ethnyl)phenyl)-5-(3-methoxyphenyl)oxazolidin-2-one]	> 30000 nM
COc1cccc([C@H]2OC(=O)N[C@@H]2c2cccc(C#Cc3cc(F)cc(F)c3)c2)c1 [Example 123, (4R,5R)-4-(3-((3,5-difluorophenyl)ethynyl)phenyl)-5-(3-methoxyphenyl)oxazolidin-2-one]	100 to 1000 nM
O=C1N[C@H](c2cccc(C#Cc3ccccc3)n2)[C@@H](c2cccnc2)O1 (single isomer, unassigned) [Example 367]	> 1000 nM

SMILES	EC50
O=C1N[C@H](c2cncc(C#Cc3cnccn3)c2)[C@@H](c2ccc(F)c(F)c2F)O1 [Example 296]	< 100 nM
O=C1N[C@@H](c2cccc(C#Cc3ccccc3)c2)[C@H](c2ccccc2)O1 (single isomer, unassigned) [Example 96]	100 to 1000 nM
O=C1N[C@H](c2cncc(C#Cc3ccccc3)c2)[C@@H](c2cc(Cl)ccc2Cl)O1 (single isomer, unassigned) [Example 326]	> 3000 nM
O=C1N[C@@H](c2cccc(C#Cc3ccccc3)c2)[C@H](c2nc(-c3ccccn3)no2)O1 [Example 163]	> 1000 nM
COc1cccc([C@@H]2OC(=O)N[C@H]2c2cccc(C#Cc3ccccc3)c2)c1 [Example 2, (4S,5S)-5-(3-Methoxyphenyl)-4-(3-(phenylethynyl)phenyl)oxazolidin-2-one]	> 30000 nM
O=C1N[C@@H](c2cccc(C#Cc3ccccc3)c2)[C@H](c2nc(-c3ccccc3)no2)O1 [Example 159]	> 1000 nM
COc1cccc([C@H]2OC(=O)N[C@@H]2c2cccc(C#Cc3ccccc3OC)c2)c1 [Example 91, (4R,5R)-5-(3-Methoxyphenyl)-4-(3-((2-methoxyphenyl)ethynyl)phenyl)oxazolidin-2-one]	100 to 1000 nM
O=C1N[C@H](c2cncc(C#Cc3ccccc3)c2)[C@@H](c2c(F)cc(F)cc2F)O1 [Example 292]	< 100 nM
O=C1N[C@H](c2cncc(C#Cc3ccnc(F)c3)c2)[C@@H](c2ccc(F)cc2)O1 [Example 214]	< 100 nM
COc1cccc([C@@H]2OC(=O)N[C@H]2c2cccc(C#Cc3ccccc3F)c2)c1 (stereo in doubt) [Example 122, (4S,5S)-4-(3-((2-fluorophenyl)ethynyl)phenyl)-5-(3-methoxyphenyl)oxazolidin-2-one]	> 1000 nM
O=C1N[C@H](c2cccc(C#Cc3cccnc3)c2)[C@@H](c2ccncc2)O1 [Example 235]	100 to 1000 nM and 211 nM
O=C1N[C@H](c2cc(C#Cc3ccccc3)cnc2F)[C@@H](c2cccc(F)c2)O1 [Example 299, (4R,5R)-4-(2-Fluoro-5-(phenylethynyl)pyridin-3-yl)-5-(3-fluorophenyl)oxazolidin-2-one]	< 100 nM
O=C1N[C@H](c2cccc(C#Cc3ccccc3)c2)[C@@H](c2nc(-c3cccnc3)no2)O1 [Example 164]	> 1000 nM
COc1cccc([C@H]2OC(=O)N[C@@H]2c2cccc(C#Cc3ccccn3)c2)c1 [Example 47, (4R,5R)-5-(3-Methoxyphenyl)-4-(3-(pyridin-2-ylethynyl)phenyl)oxazolidin-2-one]	< 100 nM and 7.4 nM
O=C1N[C@H](c2cncc(C#Cc3cccc(F)c3)c2)[C@@H](c2cc(F)ccc2F)O1 [Example 283]	< 100 nM
O=C1N[C@@H](c2cccc(C#Cc3ccccc3)c2)[C@H](c2nc(-c3ccncc3)no2)O1 [Example 161]	> 1000 nM
O=C1N[C@H](c2cncc(C#Cc3ccccc3)c2)[C@@H](c2cc(F)cc(F)c2F)O1 [Example 293]	> 1000 nM
O=C1N[C@H](c2cncc(C#Cc3cccc(F)c3)c2)[C@@H](c2cccc(F)c2F)O1 [Example 285]	100 to 1000 nM
